Laboratory results as given in patent publication US12617817B2, “Carrier peptide fragment and use thereof” (TOAGOSEI CO., LTD., priority 2020, dated 2026).
FAM = fluorescein amidite (fluorescent dye, FAM)

Tested on: HeLa cells
Experiment: Evaluating cell penetrating ability by flow cytometry (FAM fluorescence) in HeLa cells
Format: cell-based, human
Details: for shift of flow cytometry histogram on the X-axis (fluorescent intensity) in comparison with Example 3 (only FAM): FIG. 1; for MFI (mean fluorescent intensity): additive 10 μM, 0.5% DMSO, 20 hours incubation at 37° C., flow cytometry FL2 detector, average of triplicate
Protocol: The cell penetrating ability of sample 1 and sample 2 was evaluated using HeLa cells (cell line established from human cervical cancer cells). In Table 2, Example 1 indicates a test of addition of sample 1 to a culture solution of HeLa cells, Example 2 indicates a test of addition of sample 2, Example 3 indicates a test of addition of FAM diluted with DMSO, and Example 4 indicates a test of addition of DMSO only.
HeLa cells were cultured in an ordinary culture medium, DMEM (Dulbecco's modified Eagle's medium, manufactured by Fuji Film Wako Pure Chemical Industries, Cat. No. 043-30085) containing 10% FBS (fetal bovine serum).
HeLa cells adhering to the culture plate were washed with PBS, 0.25% trypsin/EDTA solution was added, and the cells were incubated for 3 minutes at 37° C. After incubation, the same DMEM medium containing 10% FBS was added to deactivate the trypsin, and the cells were precipitated by 5 minutes of centrifugation at 150×g. The supernatant produced by centrifugation was removed, and the same DMEM containing 10% FBS was added to the precipitate (cell pellet) to prepare an approximately 1×10^5 cells/mL cell suspension. 2 mL of the cell suspension was added to the wells of a commercial 6-well plate (Iwaki microplate commercially available from AGC techno glass Co., Ltd) to seed the cells at a rate of approximately 2×10^5 cells/well. This was then cultured for 3 hours at 37° C. under conditions of 5% CO2, causing the cells to adhere to the bottom of the wells. Because the cell penetrating ability evaluation is performed in triplicate, cells were seeded in 3 wells for the test of Example 1, and the following operations were performed on each well.
Next, the above 2 mM sample solution 1 was diluted with the above DMEM containing 10% FBS to prepare a sample solution 1 in which the concentration of the sample 1 was 20 μM. 1 mL of the culture supernatant was removed from each well after the 3 hours of culture, and 1 mL of 20 μM sample solution 1 was added to the well so that the sample 1 concentration of the culture solution in the well was 10 μM and the DMSO concentration was 0.5%. This was then incubated for 20 hours at 37° C. under conditions of 5% CO2. After this 20-hour incubation, the culture supernatant was removed from the well, and the cells in the well were washed twice with 1 mL of PBS. 200 μL of 0.25% trypsin/EDTA solution was then added to the well, and the cells were incubated for 3 minutes at 37° C. After this incubation, 400 μL of the above DMEM containing 10% FBS was added to the well to deactivate the trypsin, after which the cell suspension in the well was transferred to a tube, and the cells were collected. 600 μL of PBS was then added to each well to wash the well. The PBS in the well was then transferred to the above tube to collect the cells remaining in the well in the tube. This tube was centrifuged for 5 minutes under conditions of 210×g at 4° C. After centrifugation the supernatant was removed, and the precipitate (cell pellet) was suspended (washed) in 1 mL of PBS and centrifuged under the same conditions. This operation was repeated twice to remove the supernatant and obtain cells (a cell pellet) that had been cultured in medium containing the sample 1.
The cells (cell pellet) obtained above were analyzed by flow cytometry to assess the cell penetrating ability of the sample 1. A flow cytometer (On-Chip Biotechnologies Co., Ltd.) was used for the analysis.
The cell pellet obtained above was suspended in 50 μL of PBS for purposes of this analysis. A further 50 μL of 2× sample buffer for flow cytometry was added to this suspension to prepare a cell suspension for analysis.
Gating was performed with the flow cytometer based on forward scatter (FSC) and side scatter (SSC), a gate was set for the cell population under analysis, and the cell population within this gate was measured for fluorescent intensity. Analysis was performed so that the cell population composed of at least 5,000 cells. […]

Question: Which results are given for “FAM-KKRTLRKNDRKKR-CONH2 ({FAM}-KKRTLRKNDRKKR-NH2) [Example 2]”?
Answer: shift of flow cytometry histogram on the X-axis (fluorescent intensity) in comparison with Example 3 (only FAM) (10 μM, 20 hours): shifted to the right; MFI (mean fluorescent intensity): 15.5

Question: What does the source list for “FAM-KKRTLRKSNRKKR-CONH2 ({FAM}-KKRTLRKSNRKKR-NH2) [Example 1]”?
Answer: shift of flow cytometry histogram on the X-axis (fluorescent intensity) in comparison with Example 3 (only FAM) (10 μM, 20 hours): shifted to the right; efficiency (cell penetrating ability), times higher than Example 2, from MFI values (10 μM, 20 hours, comparison of MFI of Example 1 with Example 2): 4 times; MFI (mean fluorescent intensity): 62

Question: How did the “MFI (mean fluorescent intensity)” value turn out when 5(6)-carboxyfluorescein [Example 3] was run?
Answer: Its value is 6.
